Patent publication US20250325677A1, “STAT6 DEGRADERS” (Gilead Sciences, Inc., priority 2024, published 2025)

Molecular target: STAT6 (Homo sapiens (Human), UniProt P42226)
Test: STAT6 degrader assay (HiBiT, HeLa LgBiT clone 4.14)
Format: cell-based
Conditions: HeLa LgBiT clone 4.14, 4-24 h; for DC50: geometric mean, given for compounds with >80% Emax, read-out: STAT6 degradation DC50
Experimental: This was a HiBit based assay. A HeLa cell line stably transfected with a small protein, LgBit (Large Bit) was obtained from Promega. These cells express endogenous STAT6. A small 11 amino acid gene sequence (HiBiT) was inserted in the STAT6 gene using CRISPR technology. Once STAT6 protein is expressed in the cells, the HiBiT sequence will bind the LgBit in the cells resulting in a functional NanoBiT protein, giving a luminescent tag to STAT6, see FIG. 2.
Single cell clones were prepared and the clone 4.14 was selected for the assay based on that clone showing high luminescence, high STAT6 phosphorylation upon stimulation with IL-4, and inhibition of luminescence when cells were treated with STAT6 siRNA.
HeLa LgBiT clone 4.14 cells were suspended in DMEM with 10% FCS, 1% Pen/Strep, Na-pyrovate and Hygromycin B, at a concentration of 1.25*105 cells pr mL. 5000 cells were added pr well of a 384 well plate and 20 nL of compound was added by Echo® liquid handler. NN6394A (terfenadine, a toxic compound) was added to control wells at 50 μM concentration to establish the assay window. In these wells the cells are dead which equals 100% degradation of STAT6.
After 4-24 h of incubation at 37° C. under 5% CO2/95% air, 5 μL substrate (Nano-GLO®) was added to the wells and the plates were centrifuged and incubated for 0.5 h.
The luminescence in the wells as a measure of non-degraded STAT6 was measured in a plate reader (BMG Pherastar FSX). The measured DC50 (in nM) was determined.
The dose-response curves Examples 3p1, 3e50, 3e17, and 3e51 are shown below (where percent degradation is plotted vs. test compound concentration in M on a log-scale).

Chain of STAT6 (P42226 whole entry): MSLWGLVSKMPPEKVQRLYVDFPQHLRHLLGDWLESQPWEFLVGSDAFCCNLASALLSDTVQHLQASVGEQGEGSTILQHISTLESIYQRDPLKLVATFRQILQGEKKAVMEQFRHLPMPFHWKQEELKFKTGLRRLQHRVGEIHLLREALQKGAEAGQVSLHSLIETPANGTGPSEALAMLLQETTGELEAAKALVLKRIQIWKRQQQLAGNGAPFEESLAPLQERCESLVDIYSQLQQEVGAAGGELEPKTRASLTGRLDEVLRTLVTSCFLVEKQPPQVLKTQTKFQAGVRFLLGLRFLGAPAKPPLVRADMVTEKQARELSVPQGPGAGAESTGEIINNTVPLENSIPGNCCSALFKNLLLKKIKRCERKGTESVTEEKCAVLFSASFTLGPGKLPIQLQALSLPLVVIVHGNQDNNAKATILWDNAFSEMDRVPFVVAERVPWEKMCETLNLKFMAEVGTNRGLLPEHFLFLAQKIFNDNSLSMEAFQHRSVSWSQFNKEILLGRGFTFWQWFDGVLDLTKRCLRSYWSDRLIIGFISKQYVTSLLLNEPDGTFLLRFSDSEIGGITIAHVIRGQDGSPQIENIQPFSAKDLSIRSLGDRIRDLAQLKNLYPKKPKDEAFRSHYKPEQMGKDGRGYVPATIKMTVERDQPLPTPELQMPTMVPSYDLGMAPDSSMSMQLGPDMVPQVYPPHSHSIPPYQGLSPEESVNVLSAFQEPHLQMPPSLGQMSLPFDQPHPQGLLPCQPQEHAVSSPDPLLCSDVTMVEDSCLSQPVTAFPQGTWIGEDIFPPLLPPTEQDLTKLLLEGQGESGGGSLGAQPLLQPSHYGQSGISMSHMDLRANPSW

Row | DC50 [nM] | Emax (read-out: STAT6 degradation Emax (%)) [%] | SMILES
1 | 0.1 |  | COCc1nc2cc(-c3ccnc4c3cc(CN3CCC(c5ccc(C(=O)N(C)c6ccc(C7CCN(Cc8ccc9c(c8)oc(=O)n9C8CCC(=O)NC8=O)CC7)cc6)cc5)CC3)n4C)ccc2[nH]1 (stereo not drawn) [Example 3n4, N-(4-(1-((3-(2,6-dioxopiperidin-3-yl)-2-oxo-2,3-dihydrobenzo[d]oxazol-6-yl)methyl)piperidin-4-yl)phenyl)-4-(1-((4-(2-(methoxymethyl)-1H-benzo[d]imidazol-5-yl)-1-methyl-1H-pyrrolo[2,3-b]pyridin-2-yl)methyl)piperidin-4-yl)-N-methylbenzamide]
2 | 2.8 |  | CC(C)[C@H]1CN(Cc2ccc3c(c2)n(C)c(=O)n3C2CCC(=O)NC2=O)CCN1CC1CCN(C(=O)c2ccc(C3CCN([C@@H](C)c4cc5c(-c6ccc(N)nc6)ccnc5n4C)CC3)cc2)CC1 (stereo partly drawn) [Example 3e21, 3-(5-(((S)-4-((1-(4-(1-((S)-1-(4-(6-aminopyridin-3-yl)-1-methyl-1H-pyrrolo[2,3-b]pyridin-2-yl)ethyl)piperidin-4-yl)benzoyl)piperidin-4-yl)methyl)-3-iso-propylpiperazin-1-yl)methyl)-3-methyl-2-oxo-2,3-dihydro-1H-benzo[d]imidazol-1-yl)piperidine-2,6-dione]
3 |  | 50 to 60 | Cn1c(CN2CCC(c3ccc(C(=O)N4CCC(CN5CCN(Cc6cccc7c6n(C)c(=O)n7C6CCC(=O)NC6=O)CC5)CC4)cc3)CC2)cc2c(-c3ccc4[nH]ncc4c3)ccnc21 (stereo not drawn) [Example 3i1, 3-(4-((4-((1-(4-(1-((4-(1H-indazol-5-yl)-1-methyl-1H-pyrrolo[2,3-b]pyridin-2-yl)methyl)-piperidin-4-yl)benzoyl)piperidin-4-yl)methyl)piperazin-1-yl)methyl)-3-methyl-2-oxo-2,3-dihydro-1H-benzo[d]imidazol-1-yl)piperidine-2,6-dione]
4 | 1.1 |  | [2H]C([2H])([2H])n1c(=O)n(C2CCC(=O)NC2=O)c2ccc(CN3CCN(CC4CCN(C(=O)c5ccc(C6CCN([C@@H](C)c7cc8c(-c9ccc(N)nc9)ccnc8n7C)CC6)cc5)CC4)CC3)cc21 (stereo partly drawn) [Example 3e26, 3-(5-((4-((1-(4-(1-((S)-1-(4-(6-aminopyridin-3-yl)-1-methyl-1H-pyrrolo[2,3-b]pyridin-2-yl)ethyl)piperidin-4-yl)benzoyl)piperidin-4-yl)methyl)piperazin-1-yl)methyl)-3-(methyl-d3)-2-oxo-2,3-dihydro-1H-benzo[d]imidazol-1-yl)piperidine-2,6-dione]
5 | 1.4 |  | CNc1ccc(-c2ccnc3c2cc([C@H](C)N2CC=C(c4c(C)cc(C(=O)N5CCC(CN6CCN(Cc7ccc8c(c7)n(C7CC7)c(=O)n8[C@@H]7CCC(=O)NC7=O)C[C@@H]6C)CC5)cc4F)CC2)n3C)cn1 [Example 3h7, (R)-3-(3-cyclopropyl-5-(((S)-4-((1-(3-fluoro-5-methyl-4-(1-((S)-1-(1-methyl-4-(6-(methylamino)pyridin-3-yl)-1H-pyrrolo[2,3-b]pyridin-2-yl)ethyl)-1,2,3,6-tetrahydropyridin-4-yl)benzoyl)piperidin-4-yl)methyl)-3-methylpiperazin-1-yl)methyl)-2-oxo-2,3-dihydro-1H-benzo[d]imidazol-1-yl)piperidine-2,6-dione]
6 | 0.6 |  | Cn1c(CN2CCC(c3ccc(C(=O)N4CCC(CN5CCN(Cc6ccc7c(c6)n(C)c(=O)n7C6CCC(=O)NC6=O)CC5)CC4)cc3)CC2)cc2c(-c3ccc4[nH]ncc4c3)ccnc21 (stereo not drawn) [Example 3e1, 3-(5-((4-((1-(4-(1-((4-(1H-indazol-5-yl)-1-methyl-1H-pyrrolo[2,3-b]pyridin-2-yl)methyl)piperidin-4-yl)benzoyl)piperidin-4-yl)methyl)piperazin-1-yl)methyl)-3-methyl-2-oxo-2,3-dihydro-1H-benzo[d]imidazol-1-yl)piperidine-2,6-dione]
